The compounds below were run against T1, CSNK1G3 (Homo sapiens, UniProt Q9Y6M4) (assay: KinomeScan competition binding assay). Settings: 10 μM compound.
T1 construct: purchased KinomeScan, a division of Ambit Biosciences
Summary of the method: (§1)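 Test compound competes with an immobilized, ATP-site-directed ligand for binding to DNA-tagged kinase. Kinase remaining on the ligand is quantified by qPCR of the DNA tag. Values are reported as percent of control binding or as binding constants (Kd).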
`CCCNc1ncnc2ccc(N3CCOCC3)cc12` [compound 46] was tested, and the “POC ligand binding, CSNK1G3” value was 100 POC.

Same assay, conditions: 10 μM compound; 10 µM
With `N#Cc1ccc2ncnc(NCc3ccc4ccccc4c3)c2c1` [compound 43] the “POC ligand binding, CSNK1G3” value was 54 POC.

What follows are compounds tested against T2, SLK (Homo sapiens, UniProt Q9H2G2) (assay: KinomeScan competition binding assay). Settings: 10 μM compound.
T2 construct: purchased KinomeScan, a division of Ambit Biosciences
Summary of the method: as §1
`CCCNc1ncnc2ccc(N3CCOCC3)cc12` [compound 46] was tested, and the “POC ligand binding, SLK” value was 88 POC.

Same assay, conditions: 10 μM compound; 10 µM
With `N#Cc1ccc2ncnc(NCc3ccc4ccccc4c3)c2c1` [compound 43] the “POC ligand binding, SLK” value was 92 POC.

Each compound was assayed against T3, CLK4 (Homo sapiens, UniProt Q9HAZ1) (assay: KinomeScan competition binding assay). Settings: 10 μM compound.
T3 construct: purchased KinomeScan, a division of Ambit Biosciences
T3 sequence (Q9HAZ1 whole entry): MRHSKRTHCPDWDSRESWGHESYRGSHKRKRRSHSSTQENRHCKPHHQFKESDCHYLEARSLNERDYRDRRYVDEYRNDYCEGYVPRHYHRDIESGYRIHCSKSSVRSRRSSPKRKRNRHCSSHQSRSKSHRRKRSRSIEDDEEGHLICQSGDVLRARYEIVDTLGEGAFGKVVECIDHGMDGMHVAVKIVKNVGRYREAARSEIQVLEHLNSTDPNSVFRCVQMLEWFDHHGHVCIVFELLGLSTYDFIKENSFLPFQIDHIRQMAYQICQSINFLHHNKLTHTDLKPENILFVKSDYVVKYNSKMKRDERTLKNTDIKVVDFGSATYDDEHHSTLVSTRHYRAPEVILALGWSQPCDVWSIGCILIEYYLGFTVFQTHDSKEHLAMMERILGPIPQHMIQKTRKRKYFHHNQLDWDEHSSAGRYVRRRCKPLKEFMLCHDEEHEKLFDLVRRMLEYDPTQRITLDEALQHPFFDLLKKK
Summary of the method: as §1
For `CCCNc1ncnc2ccc(N3CCOCC3)cc12` [compound 46], the “POC ligand binding, CLK4” value was 24 POC.

Same assay, conditions: 10 μM compound; 10 µM
For `N#Cc1ccc2ncnc(NCc3ccc4ccccc4c3)c2c1` [compound 43], the “POC ligand binding, CLK4” value was 9.6 POC.

Each compound was assayed against T4, IRAK1 (Homo sapiens, UniProt P51617) (assay: KinomeScan competition binding assay). Settings: 10 μM compound.
T4 construct: purchased KinomeScan, a division of Ambit Biosciences
Summary of the method: as §1
For `CCCNc1ncnc2ccc(N3CCOCC3)cc12` [compound 46], the “POC ligand binding, IRAK1” value was 81 POC.

Same assay, conditions: 10 μM compound; 10 µM
`N#Cc1ccc2ncnc(NCc3ccc4ccccc4c3)c2c1` [compound 43] was tested, and the “POC ligand binding, IRAK1” value was 7.6 POC.

These compounds were tested against T5, MEK5 (Homo sapiens, UniProt Q13163) (assay: KinomeScan competition binding assay). Settings: 10 μM compound.
T5 construct: purchased KinomeScan, a division of Ambit Biosciences
T5 sequence (Q13163 1-448): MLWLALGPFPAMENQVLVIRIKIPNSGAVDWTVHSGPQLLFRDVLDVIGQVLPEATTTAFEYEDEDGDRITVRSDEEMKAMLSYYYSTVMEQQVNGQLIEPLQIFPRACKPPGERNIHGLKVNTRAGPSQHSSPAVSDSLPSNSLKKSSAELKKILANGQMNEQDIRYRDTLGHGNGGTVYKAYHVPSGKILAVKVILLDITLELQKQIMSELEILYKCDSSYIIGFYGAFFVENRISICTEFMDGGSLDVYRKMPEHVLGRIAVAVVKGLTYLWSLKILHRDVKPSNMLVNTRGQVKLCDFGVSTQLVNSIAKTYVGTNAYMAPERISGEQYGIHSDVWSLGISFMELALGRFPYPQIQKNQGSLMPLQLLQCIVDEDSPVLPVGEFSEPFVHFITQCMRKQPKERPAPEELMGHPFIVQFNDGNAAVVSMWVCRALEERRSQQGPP
Summary of the method: as §1
With `CCCNc1ncnc2ccc(N3CCOCC3)cc12` [compound 46] the “POC ligand binding, MEK5” value was 17 POC.

Same assay, conditions: 10 μM compound; 10 µM
With `N#Cc1ccc2ncnc(NCc3ccc4ccccc4c3)c2c1` [compound 43] the “POC ligand binding, MEK5” value was 41 POC.

These compounds were tested against T6, EGFR (G719C) (Homo sapiens, UniProt P00533, G719C) (assay: KinomeScan competition binding assay). Settings: 10 μM compound.
T6 construct: purchased KinomeScan, a division of Ambit Biosciences
Summary of the method: as §1
In the case of `CCCNc1ncnc2ccc(N3CCOCC3)cc12` [compound 46], the “POC ligand binding, EGFR (G719C)” value is reported as 61 POC.

Same assay, conditions: 10 μM compound; 10 µM
`N#Cc1ccc2ncnc(NCc3ccc4ccccc4c3)c2c1` [compound 43] was tested, and the “POC ligand binding, EGFR (G719C)” value was 53 POC.

The compounds below were run against T7, MAPKAPK5 (Homo sapiens, UniProt Q8IW41) (assay: KinomeScan competition binding assay). Settings: 10 μM compound.
T7 construct: purchased KinomeScan, a division of Ambit Biosciences
T7 sequence (Q8IW41 1-473): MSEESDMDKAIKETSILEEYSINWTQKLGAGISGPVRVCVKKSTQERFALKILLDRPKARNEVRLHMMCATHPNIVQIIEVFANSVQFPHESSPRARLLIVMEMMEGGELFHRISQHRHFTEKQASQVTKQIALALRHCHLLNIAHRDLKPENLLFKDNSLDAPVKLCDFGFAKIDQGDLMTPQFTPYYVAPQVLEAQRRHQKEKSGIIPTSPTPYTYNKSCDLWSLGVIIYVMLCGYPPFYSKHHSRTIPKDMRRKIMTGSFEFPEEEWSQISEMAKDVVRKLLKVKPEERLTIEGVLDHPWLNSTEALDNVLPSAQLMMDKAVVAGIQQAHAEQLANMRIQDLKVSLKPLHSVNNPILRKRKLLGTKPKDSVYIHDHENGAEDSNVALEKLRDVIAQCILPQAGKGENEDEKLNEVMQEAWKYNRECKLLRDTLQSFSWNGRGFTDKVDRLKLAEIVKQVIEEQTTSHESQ
Summary of the method: as §1
With `CCCNc1ncnc2ccc(N3CCOCC3)cc12` [compound 46] the “POC ligand binding, MAPKAPK5” value was 91 POC.

Same assay, conditions: 10 μM compound; 10 µM
For `N#Cc1ccc2ncnc(NCc3ccc4ccccc4c3)c2c1` [compound 43], the “POC ligand binding, MAPKAPK5” value was 85 POC.

The compounds below were run against T8, HIPK3 (Homo sapiens, UniProt Q9H422) (assay: KinomeScan competition binding assay). Settings: 10 μM compound.
T8 construct: purchased KinomeScan, a division of Ambit Biosciences
T8 sequence (Q9H422 whole entry): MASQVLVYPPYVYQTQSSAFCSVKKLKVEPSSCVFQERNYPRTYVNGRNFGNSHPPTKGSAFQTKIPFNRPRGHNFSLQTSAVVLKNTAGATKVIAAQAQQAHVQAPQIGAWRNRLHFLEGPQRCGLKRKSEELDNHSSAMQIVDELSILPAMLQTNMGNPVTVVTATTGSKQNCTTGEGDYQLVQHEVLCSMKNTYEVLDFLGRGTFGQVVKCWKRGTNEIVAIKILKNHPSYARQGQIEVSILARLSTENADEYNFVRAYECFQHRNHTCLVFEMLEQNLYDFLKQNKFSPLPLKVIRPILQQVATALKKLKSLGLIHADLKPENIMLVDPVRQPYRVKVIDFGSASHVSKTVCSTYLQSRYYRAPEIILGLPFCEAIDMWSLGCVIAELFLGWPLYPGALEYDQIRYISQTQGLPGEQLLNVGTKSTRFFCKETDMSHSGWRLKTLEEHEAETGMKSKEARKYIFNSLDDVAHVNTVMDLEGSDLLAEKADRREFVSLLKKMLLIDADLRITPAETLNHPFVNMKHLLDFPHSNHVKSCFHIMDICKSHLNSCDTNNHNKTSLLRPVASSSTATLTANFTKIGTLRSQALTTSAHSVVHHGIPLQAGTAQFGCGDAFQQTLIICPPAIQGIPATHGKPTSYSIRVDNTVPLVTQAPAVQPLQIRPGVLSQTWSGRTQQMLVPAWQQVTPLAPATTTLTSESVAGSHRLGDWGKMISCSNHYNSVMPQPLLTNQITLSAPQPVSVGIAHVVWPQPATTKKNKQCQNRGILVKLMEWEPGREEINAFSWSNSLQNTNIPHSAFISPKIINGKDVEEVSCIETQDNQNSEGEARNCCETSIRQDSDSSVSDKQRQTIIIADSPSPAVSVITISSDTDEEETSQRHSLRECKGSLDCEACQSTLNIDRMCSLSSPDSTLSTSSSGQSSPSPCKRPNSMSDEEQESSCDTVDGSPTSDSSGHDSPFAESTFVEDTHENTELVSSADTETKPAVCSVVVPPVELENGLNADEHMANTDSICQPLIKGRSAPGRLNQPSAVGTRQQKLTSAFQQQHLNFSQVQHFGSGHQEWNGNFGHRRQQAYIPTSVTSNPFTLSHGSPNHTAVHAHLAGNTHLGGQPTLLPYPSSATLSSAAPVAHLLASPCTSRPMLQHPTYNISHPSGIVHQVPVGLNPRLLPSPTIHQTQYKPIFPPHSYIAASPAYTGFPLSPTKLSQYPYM
Summary of the method: as §1
For `CCCNc1ncnc2ccc(N3CCOCC3)cc12` [compound 46], the “POC ligand binding, HIPK3” value was 34 POC.

Same assay, conditions: 10 μM compound; 10 µM
`N#Cc1ccc2ncnc(NCc3ccc4ccccc4c3)c2c1` [compound 43] was tested, and the “POC ligand binding, HIPK3” value was 42 POC.

Each compound was assayed against T9, CIT (Homo sapiens, UniProt O14578) (assay: KinomeScan competition binding assay). Settings: 10 μM compound.
T9 construct: purchased KinomeScan, a division of Ambit Biosciences
T9 sequence (O14578 whole entry): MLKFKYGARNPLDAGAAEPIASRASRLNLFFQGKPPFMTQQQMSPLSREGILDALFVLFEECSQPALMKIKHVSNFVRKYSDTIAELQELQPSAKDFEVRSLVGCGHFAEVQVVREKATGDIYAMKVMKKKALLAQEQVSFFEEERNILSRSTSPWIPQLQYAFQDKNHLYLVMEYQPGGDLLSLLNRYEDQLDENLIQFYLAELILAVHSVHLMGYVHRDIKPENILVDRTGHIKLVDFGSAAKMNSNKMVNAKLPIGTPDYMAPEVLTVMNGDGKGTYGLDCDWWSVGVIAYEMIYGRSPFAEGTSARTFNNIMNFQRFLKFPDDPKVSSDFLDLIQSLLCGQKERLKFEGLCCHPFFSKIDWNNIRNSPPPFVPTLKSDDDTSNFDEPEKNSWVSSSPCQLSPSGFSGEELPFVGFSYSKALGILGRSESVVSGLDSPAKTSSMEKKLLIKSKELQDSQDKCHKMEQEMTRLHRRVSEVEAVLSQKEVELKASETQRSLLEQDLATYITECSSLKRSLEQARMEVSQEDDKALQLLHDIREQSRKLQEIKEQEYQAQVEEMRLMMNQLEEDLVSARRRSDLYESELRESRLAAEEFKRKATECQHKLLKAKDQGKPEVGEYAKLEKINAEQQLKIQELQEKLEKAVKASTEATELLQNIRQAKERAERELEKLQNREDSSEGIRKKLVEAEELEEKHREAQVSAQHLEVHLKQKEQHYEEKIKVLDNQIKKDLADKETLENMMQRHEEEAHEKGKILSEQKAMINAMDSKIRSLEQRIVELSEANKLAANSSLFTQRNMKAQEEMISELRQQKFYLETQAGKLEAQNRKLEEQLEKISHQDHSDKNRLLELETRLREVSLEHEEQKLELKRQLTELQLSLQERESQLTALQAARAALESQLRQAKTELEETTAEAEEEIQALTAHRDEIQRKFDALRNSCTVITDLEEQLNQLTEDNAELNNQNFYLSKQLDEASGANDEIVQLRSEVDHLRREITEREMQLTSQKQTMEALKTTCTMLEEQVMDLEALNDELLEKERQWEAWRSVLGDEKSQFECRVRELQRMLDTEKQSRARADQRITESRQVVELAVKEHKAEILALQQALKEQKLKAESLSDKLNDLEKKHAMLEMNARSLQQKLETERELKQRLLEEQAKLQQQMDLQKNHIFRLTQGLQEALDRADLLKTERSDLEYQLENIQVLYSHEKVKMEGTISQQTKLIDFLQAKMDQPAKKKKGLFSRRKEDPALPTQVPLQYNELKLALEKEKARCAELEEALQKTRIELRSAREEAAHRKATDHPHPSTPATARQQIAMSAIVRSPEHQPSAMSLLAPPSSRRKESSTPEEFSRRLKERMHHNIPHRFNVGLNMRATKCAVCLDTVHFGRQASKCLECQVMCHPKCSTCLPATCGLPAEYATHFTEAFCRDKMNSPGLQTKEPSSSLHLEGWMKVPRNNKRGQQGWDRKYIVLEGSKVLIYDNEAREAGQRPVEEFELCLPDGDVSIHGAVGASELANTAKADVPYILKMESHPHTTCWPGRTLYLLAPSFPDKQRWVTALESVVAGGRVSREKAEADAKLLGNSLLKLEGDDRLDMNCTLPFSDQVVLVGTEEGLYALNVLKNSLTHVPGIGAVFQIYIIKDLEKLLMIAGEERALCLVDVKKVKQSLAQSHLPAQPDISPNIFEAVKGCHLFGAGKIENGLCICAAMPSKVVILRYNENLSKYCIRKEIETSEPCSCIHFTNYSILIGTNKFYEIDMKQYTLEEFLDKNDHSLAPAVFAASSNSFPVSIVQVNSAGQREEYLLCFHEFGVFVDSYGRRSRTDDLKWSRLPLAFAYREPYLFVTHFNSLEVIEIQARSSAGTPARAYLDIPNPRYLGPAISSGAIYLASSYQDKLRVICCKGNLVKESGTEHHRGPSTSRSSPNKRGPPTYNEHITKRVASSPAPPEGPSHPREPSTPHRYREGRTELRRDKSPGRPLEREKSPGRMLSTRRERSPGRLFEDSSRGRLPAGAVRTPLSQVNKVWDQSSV
Summary of the method: as §1
For `CCCNc1ncnc2ccc(N3CCOCC3)cc12` [compound 46], the “POC ligand binding, CIT” value was 86 POC.

Same assay, conditions: 10 μM compound; 10 µM
For `N#Cc1ccc2ncnc(NCc3ccc4ccccc4c3)c2c1` [compound 43], the “POC ligand binding, CIT” value was 14 POC.

What follows are compounds tested against T10, HIPK2 (Homo sapiens, UniProt Q9H2X6) (assay: KinomeScan competition binding assay). Settings: 10 μM compound.
T10 construct: purchased KinomeScan, a division of Ambit Biosciences
Summary of the method: as §1
With `CCCNc1ncnc2ccc(N3CCOCC3)cc12` [compound 46] the “POC ligand binding, HIPK2” value was 30 POC.

Same assay, conditions: 10 μM compound; 10 µM
In the case of `N#Cc1ccc2ncnc(NCc3ccc4ccccc4c3)c2c1` [compound 43], the “POC ligand binding, HIPK2” value is reported as 30 POC.

These compounds were tested against T11, BTK (Homo sapiens, UniProt Q06187) (assay: KinomeScan competition binding assay). Settings: 10 μM compound.
T11 construct: purchased KinomeScan, a division of Ambit Biosciences
Summary of the method: as §1
With `N#Cc1ccc2ncnc(NCc3ccc4ccccc4c3)c2c1` [compound 43] the “POC ligand binding, BTK” value was 100 POC.
`CCCNc1ncnc2ccc(N3CCOCC3)cc12` [compound 46] was tested, and the “POC ligand binding, BTK” value was 81 POC.

The compounds below were run against T12, PIK3CA (I800L) (Homo sapiens, UniProt P42336, I800L) (assay: KinomeScan competition binding assay). Settings: 10 μM compound.
T12 construct: purchased KinomeScan, a division of Ambit Biosciences
Summary of the method: as §1
In the case of `CCCNc1ncnc2ccc(N3CCOCC3)cc12` [compound 46], the “POC ligand binding, PIK3CA (I800L)” value is reported as 83 POC.

Same assay, conditions: 10 μM compound; 10 µM
In the case of `N#Cc1ccc2ncnc(NCc3ccc4ccccc4c3)c2c1` [compound 43], the “POC ligand binding, PIK3CA (I800L)” value is reported as 87 POC.

The compounds below were run against T13, CDK8 (Homo sapiens, UniProt P49336) (assay: KinomeScan competition binding assay). Settings: 10 μM compound.
T13 construct: purchased KinomeScan, a division of Ambit Biosciences
T13 sequence (P49336 whole entry): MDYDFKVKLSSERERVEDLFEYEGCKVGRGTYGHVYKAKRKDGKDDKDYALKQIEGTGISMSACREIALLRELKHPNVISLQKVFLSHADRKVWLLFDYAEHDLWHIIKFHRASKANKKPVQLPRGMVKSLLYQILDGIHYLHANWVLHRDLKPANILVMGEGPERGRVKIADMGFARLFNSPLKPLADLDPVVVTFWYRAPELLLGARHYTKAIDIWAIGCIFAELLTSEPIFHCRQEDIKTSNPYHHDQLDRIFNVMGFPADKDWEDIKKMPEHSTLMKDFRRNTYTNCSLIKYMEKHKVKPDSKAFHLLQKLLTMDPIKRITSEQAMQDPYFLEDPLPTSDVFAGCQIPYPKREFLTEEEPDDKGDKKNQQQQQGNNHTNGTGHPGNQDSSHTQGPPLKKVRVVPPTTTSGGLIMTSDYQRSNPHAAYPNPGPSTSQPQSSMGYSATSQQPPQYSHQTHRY
Summary of the method: as §1
`CCCNc1ncnc2ccc(N3CCOCC3)cc12` [compound 46] was tested, and the “POC ligand binding, CDK8” value was 100 POC.

Same assay, conditions: 10 μM compound; 10 µM
`N#Cc1ccc2ncnc(NCc3ccc4ccccc4c3)c2c1` [compound 43] was tested, and the “POC ligand binding, CDK8” value was 1.6 POC.

Same assay, conditions: read-out: CDK8 inhibition (Kd)
`N#Cc1ccc2ncnc(NCc3ccc4ccccc4c3)c2c1` [compound 43] showed a Kd of 240 nM.

Each compound was assayed against T14, PIP5K2C (Homo sapiens, UniProt Q8TBX8) (assay: KinomeScan competition binding assay). Settings: 10 μM compound.
T14 construct: purchased KinomeScan, a division of Ambit Biosciences
T14 sequence (Q8TBX8 1-421): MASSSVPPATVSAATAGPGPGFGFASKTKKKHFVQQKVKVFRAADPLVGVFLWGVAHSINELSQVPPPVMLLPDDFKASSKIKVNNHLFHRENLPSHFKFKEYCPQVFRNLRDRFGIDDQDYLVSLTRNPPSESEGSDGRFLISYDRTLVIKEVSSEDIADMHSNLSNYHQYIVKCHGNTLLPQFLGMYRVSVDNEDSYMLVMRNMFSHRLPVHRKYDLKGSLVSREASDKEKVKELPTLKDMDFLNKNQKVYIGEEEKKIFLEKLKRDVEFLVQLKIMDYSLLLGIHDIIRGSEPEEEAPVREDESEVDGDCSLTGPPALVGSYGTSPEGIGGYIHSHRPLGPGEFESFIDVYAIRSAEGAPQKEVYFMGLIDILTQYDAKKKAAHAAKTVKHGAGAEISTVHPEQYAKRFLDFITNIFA
Summary of the method: as §1
For `CCCNc1ncnc2ccc(N3CCOCC3)cc12` [compound 46], the “POC ligand binding, PIP5K2C” value was 61 POC.

Same assay, conditions: 10 μM compound; 10 µM
With `N#Cc1ccc2ncnc(NCc3ccc4ccccc4c3)c2c1` [compound 43] the “POC ligand binding, PIP5K2C” value was 4 POC.

These compounds were tested against T15, CSNK1G2 (Homo sapiens, UniProt P78368) (assay: KinomeScan competition binding assay). Settings: 10 μM compound.
T15 construct: purchased KinomeScan, a division of Ambit Biosciences
T15 sequence (P78368 whole entry): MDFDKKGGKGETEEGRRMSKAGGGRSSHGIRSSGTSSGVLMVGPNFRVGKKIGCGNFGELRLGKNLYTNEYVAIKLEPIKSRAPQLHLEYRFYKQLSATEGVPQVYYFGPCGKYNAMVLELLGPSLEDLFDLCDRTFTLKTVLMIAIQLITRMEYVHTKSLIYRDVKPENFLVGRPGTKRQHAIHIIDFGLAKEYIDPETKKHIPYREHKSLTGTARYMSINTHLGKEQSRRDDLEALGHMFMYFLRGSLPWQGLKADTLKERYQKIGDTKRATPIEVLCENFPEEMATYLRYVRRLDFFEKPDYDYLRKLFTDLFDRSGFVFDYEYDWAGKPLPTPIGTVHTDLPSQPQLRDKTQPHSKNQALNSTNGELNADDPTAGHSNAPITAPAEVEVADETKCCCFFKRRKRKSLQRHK
Summary of the method: as §1
In the case of `CCCNc1ncnc2ccc(N3CCOCC3)cc12` [compound 46], the “POC ligand binding, CSNK1G2” value is reported as 55 POC.

Same assay, conditions: 10 μM compound; 10 µM
`N#Cc1ccc2ncnc(NCc3ccc4ccccc4c3)c2c1` [compound 43] was tested, and the “POC ligand binding, CSNK1G2” value was 53 POC.

Each compound was assayed against T16, CLK1 (Homo sapiens, UniProt P49759) (assay: KinomeScan competition binding assay). Settings: 10 μM compound.
T16 construct: purchased KinomeScan, a division of Ambit Biosciences
T16 sequence (P49759 whole entry): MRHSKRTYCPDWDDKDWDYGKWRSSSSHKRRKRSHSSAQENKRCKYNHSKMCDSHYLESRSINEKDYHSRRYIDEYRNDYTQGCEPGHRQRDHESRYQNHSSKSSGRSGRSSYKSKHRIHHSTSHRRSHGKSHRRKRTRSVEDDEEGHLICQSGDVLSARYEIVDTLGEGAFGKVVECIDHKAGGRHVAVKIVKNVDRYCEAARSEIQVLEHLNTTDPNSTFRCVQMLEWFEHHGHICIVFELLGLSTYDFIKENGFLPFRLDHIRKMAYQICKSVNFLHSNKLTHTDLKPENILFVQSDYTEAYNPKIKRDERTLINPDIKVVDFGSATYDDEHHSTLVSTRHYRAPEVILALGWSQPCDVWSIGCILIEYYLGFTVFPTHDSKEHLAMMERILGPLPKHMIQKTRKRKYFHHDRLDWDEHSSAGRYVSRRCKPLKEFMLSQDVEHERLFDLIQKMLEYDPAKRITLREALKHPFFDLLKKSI
Summary of the method: as §1
With `CCCNc1ncnc2ccc(N3CCOCC3)cc12` [compound 46] the “POC ligand binding, CLK1” value was 48 POC.

Same assay, conditions: 10 μM compound; 10 µM
With `N#Cc1ccc2ncnc(NCc3ccc4ccccc4c3)c2c1` [compound 43] the “POC ligand binding, CLK1” value was 9 POC.

— patent publication US8598344B2, “CDKI pathway inhibitors and uses thereof” (Senex Biotechnology, priority 2009, dated 2013)
